Marks after values point to notes of the source that are not given here.
How the values were obtained:
Male HLA-B27 rats [1] = experiment: HLA rat test for inflammatory bowel disease: stool character (3 = diarrhea; 2 = soft stool; 1 = normal stool); assay type: in vivo
Male HLA-B27 rats [2] = experiment: HLA-B27 rat test for inflammatory bowel disease: histological scoring of colon; assay type: in vivo; details: Study C
[3] = oral 7 weeks, 10 mg/kg days 1-24, then 20 mg/kg

**Q.** How did the “Stool quality” value (Male HLA-B27 rats [1]; Study A, 50 mg/kg s.c.) turn out when `C=Cc1cc(O)cc2nc(-c3ccc(O)c(F)c3)oc12` [Example 24, 2-(3-FLUORO-4-HYDROXYPH ENYL)-7-VI NYL-1,3-BENZOXAZOL-5-OL] was run?
**A.** Stool quality was improved

**Q.** What about the “Stool Character (group's average score)” value (Male HLA-B27 rats [1]; Study A, 50 mg/kg s.c. once per day, Day 1) of the same compound?
**A.** 2.8

**Q.** What about the “Stool Character (group's average score)” value (Male HLA-B27 rats [1]; Study A, 50 mg/kg s.c. once per day, Day 2) of the same compound?
**A.** 2

**Q.** What about the “Stool Character (group's average score)” value (Male HLA-B27 rats [1]; Study A, 50 mg/kg s.c. once per day, Day 3) of the same compound?
**A.** 1.8

**Q.** And the “Stool Character (group's average score)” value (Male HLA-B27 rats [1]; Study A, 50 mg/kg s.c. once per day, Day 4)?
**A.** 1.6

**Q.** And the “Stool Character (group's average score)” value (Male HLA-B27 rats [1]; Study A, 50 mg/kg s.c. once per day, Day 5)?
**A.** 1.6

**Q.** And the “Stool Character (group's average score)” value (Male HLA-B27 rats [1]; Study A, 50 mg/kg s.c. once per day, Day 6)?
**A.** 1.4

**Q.** What about the “Stool Character (group's average score)” value (Male HLA-B27 rats [1]; Study C, oral 10 mg/kg once per day, Day 1) of the same compound?
**A.** 2.75

**Q.** What about the “Stool Character (group's average score)” value (Male HLA-B27 rats [1]; Study C, oral 10 mg/kg once per day, Day 2) of the same compound?
**A.** 2.75

**Q.** And the “Stool Character (group's average score)” value (Male HLA-B27 rats [1]; Study C, oral 10 mg/kg once per day, Day 3)?
**A.** 2.75

**Q.** What about the “Stool Character (group's average score)” value (Male HLA-B27 rats [1]; Study C, oral 10 mg/kg once per day, Day 4) of the same compound?
**A.** 2.5

**Q.** And the “Stool Character (group's average score)” value (Male HLA-B27 rats [1]; Study C, oral 10 mg/kg once per day, Day 5)?
**A.** 2

**Q.** What about the “Stool Character (group's average score)” value (Male HLA-B27 rats [1]; Study C, oral 10 mg/kg once per day, Day 6) of the same compound?
**A.** 2.5

**Q.** What about the “Stool Character (group's average score)” value (Male HLA-B27 rats [1]; Study C, oral 10 mg/kg once per day, Day 7) of the same compound?
**A.** 2.25

**Q.** What about the “Stool Character (group's average score)” value (Male HLA-B27 rats [1]; Study C, oral 10 mg/kg once per day, Day 8) of the same compound?
**A.** 2.25

**Q.** And the “Stool Character (group's average score)” value (Male HLA-B27 rats [1]; Study C, oral 10 mg/kg once per day, Day 9)?
**A.** 2.25

**Q.** What about the “Stool Character (group's average score)” value (Male HLA-B27 rats [1]; Study C, oral 10 mg/kg once per day, Day 10) of the same compound?
**A.** 2.25

**Q.** And the “Stool Character (group's average score)” value (Male HLA-B27 rats [1]; Study C, oral 10 mg/kg once per day, Day 11)?
**A.** 2.25

**Q.** What about the “Stool Character (group's average score)” value (Male HLA-B27 rats [1]; Study C, oral 10 mg/kg once per day, Day 12) of the same compound?
**A.** 1.75

**Q.** And the “Stool Character (group's average score)” value (Male HLA-B27 rats [1]; Study C, oral 10 mg/kg once per day, Day 13)?
**A.** 2.25

**Q.** What about the “Stool Character (group's average score)” value (Male HLA-B27 rats [1]; Study C, oral 10 mg/kg once per day, Day 14) of the same compound?
**A.** 2

**Q.** What about the “Stool Character (group's average score)” value (Male HLA-B27 rats [1]; Study C, oral 10 mg/kg once per day, Day 15) of the same compound?
**A.** 1.75

**Q.** And the “Stool Character (group's average score)” value (Male HLA-B27 rats [1]; Study C, oral 10 mg/kg once per day, Day 16)?
**A.** 1.75

**Q.** And the “Stool Character (group's average score)” value (Male HLA-B27 rats [1]; Study C, oral 10 mg/kg once per day, Day 17)?
**A.** 1.75

**Q.** What about the “Stool Character (group's average score)” value (Male HLA-B27 rats [1]; Study C, oral 10 mg/kg once per day, Day 18) of the same compound?
**A.** 1.75

**Q.** What about the “Stool Character (group's average score)” value (Male HLA-B27 rats [1]; Study C, oral 10 mg/kg once per day, Day 19) of the same compound?
**A.** 1.75

**Q.** And the “Stool Character (group's average score)” value (Male HLA-B27 rats [1]; Study C, oral 10 mg/kg once per day, Day 20)?
**A.** 1.75

**Q.** And the “Stool Character (group's average score)” value (Male HLA-B27 rats [1]; Study C, oral 10 mg/kg once per day, Day 21)?
**A.** 1.75

**Q.** What about the “Stool Character (group's average score)” value (Male HLA-B27 rats [1]; Study C, oral 10 mg/kg once per day, Day 22) of the same compound?
**A.** 1.75

**Q.** What about the “Stool Character (group's average score)” value (Male HLA-B27 rats [1]; Study C, oral 10 mg/kg once per day, Day 23) of the same compound?
**A.** 1.75

**Q.** What about the “Stool Character (group's average score)” value (Male HLA-B27 rats [1]; Study C, oral 10 mg/kg once per day, Day 24) of the same compound?
**A.** 2

**Q.** What about the “Stool Character (group's average score)” value (Male HLA-B27 rats [1]; Study C, oral 20 mg/kg once per day (10 mg/kg earlier), Day 25) of the same compound?
**A.** 2

**Q.** And the “Stool Character (group's average score)” value (Male HLA-B27 rats [1]; Study C, oral 20 mg/kg once per day (10 mg/kg earlier), Day 26)?
**A.** 2.25

**Q.** And the “Stool Character (group's average score)” value (Male HLA-B27 rats [1]; Study C, oral 20 mg/kg once per day (10 mg/kg earlier), Day 27)?
**A.** 1.75

**Q.** And the “Stool Character (group's average score)” value (Male HLA-B27 rats [1]; Study C, oral 20 mg/kg once per day (10 mg/kg earlier), Day 28)?
**A.** 1.75

**Q.** And the “Stool Character (group's average score)” value (Male HLA-B27 rats [1]; Study C, oral 20 mg/kg once per day (10 mg/kg earlier), Day 29)?
**A.** 1.5

**Q.** And the “Stool Character (group's average score)” value (Male HLA-B27 rats [1]; Study C, oral 20 mg/kg once per day (10 mg/kg earlier), Day 30)?
**A.** 1.5

**Q.** What about the “Stool Character (group's average score)” value (Male HLA-B27 rats [1]; Study C, oral 20 mg/kg once per day (10 mg/kg earlier), Day 31) of the same compound?
**A.** 1.5

**Q.** What about the “Stool Character (group's average score)” value (Male HLA-B27 rats [1]; Study C, oral 20 mg/kg once per day (10 mg/kg earlier), Day 32) of the same compound?
**A.** 1.5

**Q.** What about the “Stool Character (group's average score)” value (Male HLA-B27 rats [1]; Study C, oral 20 mg/kg once per day (10 mg/kg earlier), Day 33) of the same compound?
**A.** 1.75

**Q.** What about the “Stool Character (group's average score)” value (Male HLA-B27 rats [1]; Study C, oral 20 mg/kg once per day (10 mg/kg earlier), Day 34) of the same compound?
**A.** 1.75

**Q.** And the “Stool Character (group's average score)” value (Male HLA-B27 rats [1]; Study C, oral 20 mg/kg once per day (10 mg/kg earlier), Day 35)?
**A.** 1.5

**Q.** And the “Stool Character (group's average score)” value (Male HLA-B27 rats [1]; Study C, oral 20 mg/kg once per day (10 mg/kg earlier), Day 36)?
**A.** 1.5

**Q.** What about the “Stool Character (group's average score)” value (Male HLA-B27 rats [1]; Study C, oral 20 mg/kg once per day (10 mg/kg earlier), Day 37) of the same compound?
**A.** 1.25

**Q.** And the “Stool Character (group's average score)” value (Male HLA-B27 rats [1]; Study C, oral 20 mg/kg once per day (10 mg/kg earlier), Day 38)?
**A.** 1.75

**Q.** And the “Stool Character (group's average score)” value (Male HLA-B27 rats [1]; Study C, oral 20 mg/kg once per day (10 mg/kg earlier), Day 39)?
**A.** 1.75

**Q.** What about the “Stool Character (group's average score)” value (Male HLA-B27 rats [1]; Study C, oral 20 mg/kg once per day (10 mg/kg earlier), Day 40) of the same compound?
**A.** 1.5

**Q.** What about the “Stool Character (group's average score)” value (Male HLA-B27 rats [1]; Study C, oral 20 mg/kg once per day (10 mg/kg earlier), Day 41) of the same compound?
**A.** 1.75

**Q.** And the “Stool Character (group's average score)” value (Male HLA-B27 rats [1]; Study C, oral 20 mg/kg once per day (10 mg/kg earlier), Day 42)?
**A.** 1.5

**Q.** And the “Stool Character (group's average score)” value (Male HLA-B27 rats [1]; Study C, oral 20 mg/kg once per day (10 mg/kg earlier), Day 43)?
**A.** 1.5

**Q.** And the “Stool Character (group's average score)” value (Male HLA-B27 rats [1]; Study C, oral 20 mg/kg once per day (10 mg/kg earlier), Day 44)?
**A.** 1.5

**Q.** What about the “Stool Character (group's average score)” value (Male HLA-B27 rats [1]; Study C, oral 20 mg/kg once per day (10 mg/kg earlier), Day 45) of the same compound?
**A.** 1.25

**Q.** And the “Stool Character (group's average score)” value (Male HLA-B27 rats [1]; Study C, oral 20 mg/kg once per day (10 mg/kg earlier), Day 46)?
**A.** 1.25

**Q.** What about the “Total disease score versus vehicle” value (Male HLA-B27 rats [2]; oral) of the same compound?
**A.** significantly reduced total disease score

**Q.** What about the “Fibrosis (0-2), mean ± SD” value (Male HLA-B27 rats [2]; [3]) of the same compound?
**A.** 0*

**Q.** And the “Inflammation (0-3), mean ± SD” value (Male HLA-B27 rats [2]; [3])?
**A.** 0.69 ± 0.24

**Q.** What about the “Lesion depth (0-2), mean ± SD” value (Male HLA-B27 rats [2]; [3]) of the same compound?
**A.** 0*

**Q.** And the “Total score, mean ± SD” value (Male HLA-B27 rats [2]; [3])?
**A.** 0.69 ± 0.24
